These results are taken from patent US12305171B2, “Compositions and methods for treating cancer” (bioAffinity Technologies, Inc., priority 2018, dated 2025).

One data set relates to GM05659 fibroblasts. The data set is described as follows: lentiviral shRNA knockdown of CD320 and LRP2, cell growth observation. Format: cell-based. On the set-up: key: +++: cells unaffected compared to shSCR (control); ++: cells modestly affected compared to shSCR (control); +: cells significantly affected compared to shSCR (control); 0: vast majority of cells killed compared to shSCR (control). The conditions noted are these: GM05659, normal cells. From the text:
(§1) Mechanistic investigations into the selectivity of porphyrin uptake by cancer cells led to several nonobvious compounds and methods of using the compound(s). It was discovered that the knockdown of the expression of either CD320 gene or LRP2 gene or the simultaneous knockdown of the expression of CD320 gene and LRP2 gene caused cell death or inhibition of cell growth in a panel of lung cancer cell lines, compared to normal fibroblasts. The experimental outline is illustrated in FIG. 1. In these experiments, cells were plated on day 0. The next day (day 1), virus particles encoding short hairpin RNAs (shRNAs) directed to the CD320 gene and the LRP2 gene or an irrelevant shRNA control were added to the cell culture together with protamine sulfate, a reagent that facilitates cell entry of the virus particles.
(§2) FIG. 1 illustrates an experimental design for knocking down CD320 and LRP2 in a cell. Cells were plated on day 0. The next day (day 1), virus particles encoding short hairpin RNAs (shRNAs) directed at the CD320 and LRP2 mRNA or a non-targeting shRNA control were added to the cell culture together with protamine sulfate, a reagent that facilitates cell entry of the virus particles. […] Each shRNA coding sequence was also combined with a unique drug resistance gene, which would allow for selecting those cells that had taken up the shRNA; cells that had not taken up the shRNA would not survive. On day 2, drug selection was started. On day 3, the cells were harvested and plated in a new dish. Only the cells with a drug resistance gene, i.e., those cells that had taken up shRNA virus particles would survive this re-plating procedure. From day 4 on, each culture was closely observed for cell growth. Cells infected with the non-targeting negative control shRNA continued growing—data not shown.
FIGS. 2 A-C illustrates sensitivity of cancer cell lines to knockdown of CD320 and LRP2. […] The fields of cells in FIG. 2A were counted and quantified and illustrated in FIG. 2B. […]

The test system of another data set is A172. The data set is described as above. Format: cell-based. On the set-up: key: +++: cells unaffected compared to shSCR (control); ++: cells modestly affected compared to shSCR (control); +: cells significantly affected compared to shSCR (control); 0: vast majority of cells killed compared to shSCR (control). The note with it: A172, glioblastoma.
Text: as §1, §2
(§3) The Each vector that carried a shRNA coding sequence also contained a unique drug resistance gene which would allow for selecting those cells that had taken up the shRNA as those cells that had not taken up the shRNA having the unique drug resistance gene would not survive. On day 2, drug selection was started. On day 3, the cells were harvested and plated in a new dish. Only the cells with a drug resistance gene, i.e., those cells that had taken up shRNA virus particles would survive this re-plating procedure. From day 4 on, each culture was closely observed for cell growth. The cells that were infected with the irrelevant control shRNA kept on growing as expected (since the shRNA was essentially a non-functional shRNA)—data not shown.
(§4) Additional cancer cell lines were also treated with the compounds described herein to determine whether cancer cell lines were more susceptible to growth inhibition and toxicity as compared to non-cancer cells of the same origin. Cell lines from skin, prostate, and brain cancers were screened similarly to the experimental outline in FIG. 1. Table 3 summarizes the effects of simultaneous knockdown of CD320 and LRP2 in cancer and normal cells.

Another data set concerns DU-145. The description is as above. The conditions noted are these: DU-145, prostate cells. Type of data set: cell-based. On the set-up: key: +++: cells unaffected compared to shSCR (control); ++: cells modestly affected compared to shSCR (control); +: cells significantly affected compared to shSCR (control); 0: vast majority of cells killed compared to shSCR (control).
Text: as §1, §2, §3, §4

In another data set the test system is GM00701. The data set is described as above. Format: cell-based. The conditions noted are these: GM00701, normal cells. On the set-up: key: +++: cells unaffected compared to shSCR (control); ++: cells modestly affected compared to shSCR (control); +: cells significantly affected compared to shSCR (control); 0: vast majority of cells killed compared to shSCR (control).
Text: as §1, §2, §3, §4

For a further data set, the system named is H157. The data set is described as above. Type of data set: cell-based. On the set-up: key: +++: cells unaffected compared to shSCR (control); ++: cells modestly affected compared to shSCR (control); +: cells significantly affected compared to shSCR (control); 0: vast majority of cells killed compared to shSCR (control). The note with it: H157, lung cells.
Text: as §1, §2, §3, §4

The next data set deals with H1993. The data set is described as above. Format: cell-based. On the set-up: key: +++: cells unaffected compared to shSCR (control); ++: cells modestly affected compared to shSCR (control); +: cells significantly affected compared to shSCR (control); 0: vast majority of cells killed compared to shSCR (control). The conditions noted are these: H1993, lung cells.
Text: as §1, §2, §3, §4

In the next data set the test system is H358. The description is as above. The conditions noted are these: H358, lung cells. Type of data set: cell-based. On the set-up: key: +++: cells unaffected compared to shSCR (control); ++: cells modestly affected compared to shSCR (control); +: cells significantly affected compared to shSCR (control); 0: vast majority of cells killed compared to shSCR (control).
Text: as §1, §2, §3, §4

The test system of the next data set is HCC15. The description is as above. Format: cell-based. On the set-up: key: +++: cells unaffected compared to shSCR (control); ++: cells modestly affected compared to shSCR (control); +: cells significantly affected compared to shSCR (control); 0: vast majority of cells killed compared to shSCR (control). The conditions noted are these: HCC15, lung cells.
Text: as §1, §2, §3, §4

In the next data set the test system is LncAP. The data set is described as above. Type of data set: cell-based. On the set-up: key: +++: cells unaffected compared to shSCR (control); ++: cells modestly affected compared to shSCR (control); +: cells significantly affected compared to shSCR (control); 0: vast majority of cells killed compared to shSCR (control). The conditions noted are these: prostate cells.
Text: as §1, §2, §3, §4

The next data set has as its system MDA-MB-4353. The description is as above. Format: cell-based. The conditions noted are these: MDA-MB-4353, melanoma cells. On the set-up: key: +++: cells unaffected compared to shSCR (control); ++: cells modestly affected compared to shSCR (control); +: cells significantly affected compared to shSCR (control); 0: vast majority of cells killed compared to shSCR (control).
Text: as §1, §2, §3, §4

A further data set deals with PC3. The description is as above. Type of data set: cell-based. On the set-up: key: +++: cells unaffected compared to shSCR (control); ++: cells modestly affected compared to shSCR (control); +: cells significantly affected compared to shSCR (control); 0: vast majority of cells killed compared to shSCR (control). The note with it: PC3, prostate cells.
Text: as §1, §2, §3, §4

In the next data set the test system is T98G. Described as above. Format: cell-based. On the set-up: key: +++: cells unaffected compared to shSCR (control); ++: cells modestly affected compared to shSCR (control); +: cells significantly affected compared to shSCR (control); 0: vast majority of cells killed compared to shSCR (control). The note with it: glioblastoma.
Text: as §1, §2, §3, §4

For the next data set, the system named is U251MG. The description is as above. Format: cell-based. On the set-up: key: +++: cells unaffected compared to shSCR (control); ++: cells modestly affected compared to shSCR (control); +: cells significantly affected compared to shSCR (control); 0: vast majority of cells killed compared to shSCR (control). The note with it: glioblastoma.
Text: as §1, §2, §3, §4

Another data set relates to U343. Described as above. Format: cell-based. On the set-up: key: +++: cells unaffected compared to shSCR (control); ++: cells modestly affected compared to shSCR (control); +: cells significantly affected compared to shSCR (control); 0: vast majority of cells killed compared to shSCR (control). The note with it: U343, glioblastoma.
Text: as §1, §2, §3, §4

The conditions of data set [1]: cited from earlier work.

Like-named read-outs stand apart in the source and are kept apart here.

With “shCD320: lentiviral shRNA targeting CD320 (NM_016579.3), location 1006-1026; SEQ ID NO. 943/944 (sense CCCTCAGAGACCTGAGCTCTT; antisense AAGAGCTCAGGTCTCTGAGGG) [lentiviral shRNA targeting CD320 (NM_016579.3), location 1006-1026; 943/944]”, the “cells affected compared to shSCR (control)” value is listed as “+++” with GM05659 fibroblasts; “+” in the data set on A172; “++” in the data set with DU-145; “++” with GM00701; “+” in the data set with H157; “++” in the data set on H1993. Moreover, the “cells affected compared to shSCR (control)” value in the data set with H358 is “++”; with HCC15, “+”; in the data set on LncAP, “++”; in the data set with MDA-MB-4353 it was “++”; with PC3, “+++”; in the data set with T98G, “+++”. Moreover, the figures for the “cells affected compared to shSCR (control)” value in the data set with U251MG and with U343 were “+” and “+++”, respectively.
On to “shLRP2: lentiviral shRNA targeting LRP2 (NM_004525.2), location 2800-2820; SEQ ID NO. 945/946 (sense CCTGTAATAAACACTACTCTT; antisense AAGAGTAGTGTTTATTACAGG) [lentiviral shRNA targeting LRP2 (NM_004525.2), location 2800-2820; 945/946]”, for which the “cells affected compared to shSCR (control)” value in the data set with GM05659 fibroblasts was “+++”; in the data set with A172 it was “+”; in the data set with DU-145, “+”; with GM00701, “+++”; in the data set with H157, “++”; in the data set on H1993, “++”. In addition, the “cells affected compared to shSCR (control)” value in the data set on H358 is reported as “++”; with HCC15, “+”; with LncAP, “++”; with MDA-MB-4353 it was “+”; in the data set with PC3 it was “++”; in the data set on T98G, “++”. Besides, the “cells affected compared to shSCR (control)” value in the data set on U251MG and in the data set with U343 was “++” throughout.

B1: TCN1: plasma glycoprotein chaperone of cobalamin, sialylated and desialylated forms (protein, UniProt P20061 24-433, looked up)
Transcobalamin-1: EICEVSEENYIRLKPLLNTMIQSNYNRGTSAVNVVLSLKLVGIQIQTLMQKMIQQIKYNVKSRLSDVSSGELALIILALGVCRNAEENLIYDYHLIDKLENKFQAEIENMEAHNGTPLTNYYQLSLDVLALCLFNGNYSTAEVVNHFTPENKNYYFGSQFSVDTGAMAVLALTCVKKSLINGQIKADEGSLKNISIYTKSLVEKILSEKKENGLIGNTFSTGEAMQALFVSSDYYNENDWNCQQTLNTVLTEISQGAFSNPNAAAQVLPALMGKTFLDINKDSSCVSASGNFNISADEPITVTPPDSQSYISVNYSVRINETYFTNVTVLNGSVFLSVMEKAQKMNDTIFGFTMEERSWGPYITCIQGLCANNNDRTYWELLSGGEPLSQGAGSYVVRNGENLEVRWSKY
As for B1, the plasma half-life entry in [1] (desialylated, less abundant form) is “a few minutes”; in data set [1] (sialylated, most abundant form), “about 10 days”.

B2: TCN2-Cbl: complex of transcobalamin 2 (TCN2) with cobalamin (vitamin B12) (protein, UniProt P20062 19-427, looked up)
Transcobalamin-2: EMCEIPEMDSHLVEKLGQHLLPWMDRLSLEHLNPSIYVGLRLSSLQAGTKEDLYLHSLKLGYQQCLLGSAFSEDDGDCQGKPSMGQLALYLLALRANCEFVRGHKGDRLVSQLKWFLEDEKRAIGHDHKGHPHTSYYQYGLGILALCLHQKRVHDSVVDKLLYAVEPFHQGHHSVDTAAMAGLAFTCLKRSNFNPGRRQRITMAIRTVREEILKAQTPEGHFGNVYSTPLALQFLMTSPMRGAELGTACLKARVALLASLQDGAFQNALMISQLLPVLNHKTYIDLIFPDCLAPRVMLEPAAETIPQTQEIISVTLQVLSLLPPYRQSISVLAGSTVEDVLKKAHELGGFTYETQASLSGPYLTSVMGKAAGEREFWQLLRDPNTPLLQGIADYRPKDGETIELRLVSW
modifications: complexed with cobalamin
With B2, the plasma half-life in data set [1] (in vivo) is 1 to 15 h.
